Source: US10449181B2, “Treatment of autism and autism spectrum disorders (ASD)” (priority 2016, dated 2019)
“Also recorded” adds a separate entry of the source.

How the values were obtained:
[1] = system: subject with Autism Spectrum Disorder; experiment: Oral zolpidem dosing regimen in a subject with ASD; type: in vivo, human
Excerpt: Thus, classic BZs and zolpidem are likely to have different requirements for high-affinity binding to GABAA receptors (Sancar et al. 2007). […] Studies have shown that the sedative-hypnotic and anticonvulsant activities of zolpidem are due to its action on α1-GABAA receptors and not on α2- or α3-GABAA receptors (Crestani F et al., 2000).
Especially, the relief of the so-called “psychic pain” or “phantom pain” which was by far the most debilitating symptom of ASD with respect to the subject, was profound after the first dose.

α1-GABAA receptors = α1-GABAA receptors (Homo sapiens, UniProt P14867+P18507); conditions: recombinant receptors; cited from earlier work
α2-GABAA receptors = α2-GABAA receptors (Homo sapiens, UniProt P18507+P47869); conditions: recombinant receptors; cited from earlier work
α3-GABAA receptors = α3-GABAA receptors (Homo sapiens, UniProt P18507+P34903); conditions: recombinant receptors; cited from earlier work
α5-GABAA receptors = biological target: T1, α5-GABAA receptors (Homo sapiens, UniProt P31644); conditions: recombinant receptors; cited from earlier work
T1 sequence (P31644 32-462): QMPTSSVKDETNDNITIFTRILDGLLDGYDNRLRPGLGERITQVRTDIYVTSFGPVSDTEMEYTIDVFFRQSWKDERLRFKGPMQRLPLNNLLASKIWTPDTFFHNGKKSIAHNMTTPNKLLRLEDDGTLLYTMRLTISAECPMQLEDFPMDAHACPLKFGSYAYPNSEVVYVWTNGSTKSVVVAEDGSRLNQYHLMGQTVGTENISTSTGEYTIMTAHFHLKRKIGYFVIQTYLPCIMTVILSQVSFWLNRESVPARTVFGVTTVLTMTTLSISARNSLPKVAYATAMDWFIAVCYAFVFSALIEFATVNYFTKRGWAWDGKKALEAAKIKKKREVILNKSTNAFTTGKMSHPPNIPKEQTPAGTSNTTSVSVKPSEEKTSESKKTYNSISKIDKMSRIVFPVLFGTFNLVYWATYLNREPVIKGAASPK

α1β3 GABAA receptors = biological target: T2, α1β3 GABAA receptors (Homo sapiens, UniProt P14867); conditions: cited from earlier work
T2 sequence (P14867 28-456): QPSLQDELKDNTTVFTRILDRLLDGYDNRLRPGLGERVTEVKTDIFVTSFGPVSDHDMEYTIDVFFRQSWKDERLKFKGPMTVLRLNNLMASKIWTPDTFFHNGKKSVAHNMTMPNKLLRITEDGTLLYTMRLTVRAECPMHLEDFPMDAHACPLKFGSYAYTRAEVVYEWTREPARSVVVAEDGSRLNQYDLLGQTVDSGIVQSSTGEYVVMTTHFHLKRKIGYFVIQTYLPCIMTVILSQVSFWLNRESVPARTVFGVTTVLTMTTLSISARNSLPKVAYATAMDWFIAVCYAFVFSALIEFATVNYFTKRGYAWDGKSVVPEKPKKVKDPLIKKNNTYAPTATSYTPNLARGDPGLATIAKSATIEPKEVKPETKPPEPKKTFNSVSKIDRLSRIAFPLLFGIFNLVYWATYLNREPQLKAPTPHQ
T2 sequence (P28472 26-473 partner): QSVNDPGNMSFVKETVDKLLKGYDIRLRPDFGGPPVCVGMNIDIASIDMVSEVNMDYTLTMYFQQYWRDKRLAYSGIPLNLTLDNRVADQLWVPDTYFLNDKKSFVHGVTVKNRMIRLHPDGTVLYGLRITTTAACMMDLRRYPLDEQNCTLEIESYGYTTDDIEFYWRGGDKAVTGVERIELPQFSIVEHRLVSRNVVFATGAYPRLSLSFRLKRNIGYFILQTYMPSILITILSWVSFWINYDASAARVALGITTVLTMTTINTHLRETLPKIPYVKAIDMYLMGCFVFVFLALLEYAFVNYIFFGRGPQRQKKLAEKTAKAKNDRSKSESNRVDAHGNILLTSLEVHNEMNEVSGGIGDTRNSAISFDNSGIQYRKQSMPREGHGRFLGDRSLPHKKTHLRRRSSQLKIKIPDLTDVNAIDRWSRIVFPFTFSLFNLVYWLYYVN

autistic children = conditions: eight week trial, 25 autistic children, unpublished data, not placebo-controlled; cited from earlier work

α1-GABAA receptors, sequence (P18507 40-475, one chain of several): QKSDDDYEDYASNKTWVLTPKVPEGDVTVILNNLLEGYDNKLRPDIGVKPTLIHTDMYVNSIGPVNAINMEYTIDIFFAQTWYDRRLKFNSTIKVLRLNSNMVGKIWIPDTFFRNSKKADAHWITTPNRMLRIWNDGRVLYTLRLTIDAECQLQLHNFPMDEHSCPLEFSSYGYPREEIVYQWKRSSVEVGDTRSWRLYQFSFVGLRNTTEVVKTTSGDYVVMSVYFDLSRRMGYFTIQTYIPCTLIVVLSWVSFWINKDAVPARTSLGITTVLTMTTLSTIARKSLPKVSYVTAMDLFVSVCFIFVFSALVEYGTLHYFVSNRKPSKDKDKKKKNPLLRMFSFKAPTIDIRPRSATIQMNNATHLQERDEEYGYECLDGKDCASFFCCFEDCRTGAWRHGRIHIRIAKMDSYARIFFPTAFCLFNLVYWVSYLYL
α2-GABAA receptors, sequence (P47869 29-451, one chain of several): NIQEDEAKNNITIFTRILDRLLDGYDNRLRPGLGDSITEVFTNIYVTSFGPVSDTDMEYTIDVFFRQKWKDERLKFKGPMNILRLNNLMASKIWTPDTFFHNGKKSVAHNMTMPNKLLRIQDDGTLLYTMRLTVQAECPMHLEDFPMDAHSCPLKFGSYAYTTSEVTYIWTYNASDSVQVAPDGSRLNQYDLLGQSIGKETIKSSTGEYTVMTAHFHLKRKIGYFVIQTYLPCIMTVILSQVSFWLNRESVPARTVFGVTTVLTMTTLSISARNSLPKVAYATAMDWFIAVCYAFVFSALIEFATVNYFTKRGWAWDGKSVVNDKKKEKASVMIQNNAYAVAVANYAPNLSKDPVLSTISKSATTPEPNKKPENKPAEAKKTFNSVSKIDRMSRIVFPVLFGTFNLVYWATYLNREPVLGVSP
α2-GABAA receptors, sequence (P18507 40-475, one chain of several): as the sequence (P18507 40-475, one chain of several) above
α3-GABAA receptors, sequence (P34903 29-492, one chain of several): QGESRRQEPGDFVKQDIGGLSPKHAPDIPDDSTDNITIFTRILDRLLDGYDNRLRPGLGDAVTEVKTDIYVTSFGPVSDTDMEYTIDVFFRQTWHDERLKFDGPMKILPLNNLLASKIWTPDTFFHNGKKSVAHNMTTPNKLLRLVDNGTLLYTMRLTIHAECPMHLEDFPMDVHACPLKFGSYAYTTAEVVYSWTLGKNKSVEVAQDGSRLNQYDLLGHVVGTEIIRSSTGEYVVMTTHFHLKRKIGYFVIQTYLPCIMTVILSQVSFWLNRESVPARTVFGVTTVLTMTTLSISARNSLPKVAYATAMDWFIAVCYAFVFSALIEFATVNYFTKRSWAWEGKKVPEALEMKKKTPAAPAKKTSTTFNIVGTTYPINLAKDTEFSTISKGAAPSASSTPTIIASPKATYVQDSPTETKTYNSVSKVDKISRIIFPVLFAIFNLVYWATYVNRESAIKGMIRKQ
α3-GABAA receptors, sequence (P18507 40-475, one chain of several): as the sequence (P18507 40-475, one chain of several) above

| SMILES | relief of the so-called psychic pain or phantom pain ([1]; after the first dose, one subject) | attenuation of at least one indicium of an ASD ([1]; oral, at least 30 mg every 3.5 hours around the clock, at least one subject) | duration of symptom-free state while on zolpidem ([1]; oral, at least 30 mg every 3.5 hours around the clock, one subject) | affinity to α1-GABAA receptors (α1-GABAA receptors) | affinity to α2-GABAA receptors (α2-GABAA receptors) | affinity to α3-GABAA receptors (α3-GABAA receptors) | binding to α5-GABAA receptors (α5-GABAA receptors) | modulation of α1β3 GABAA receptors (α1β3 GABAA receptors) | measures of irritability and communications (autistic children) |
| --- | --- | --- | --- | --- | --- | --- | --- | --- | --- |
| Cc1ccc(-c2nc3ccc(C)cn3c2CC(=O)N(C)C)cc1 [zolpidem] | profound | almost complete attenuation; also recorded: immediate and almost complete | symptom-free and leading a normal life for at least five years | high affinity | intermediate affinity | intermediate affinity | fails to bind | potent stoichiometry-selective modulator | – |
| NC[C@H](CC(=O)O)c1ccc(Cl)cc1 [Arbaclofen] | – | – | – | – | – | – | – | – | significant improvements |
